Laboratory results: patent publication US20240381872A1, “SUBSTITUTED 2,3-DIHYDRO[1,3]THIAZOLO[4,5-B]PYRIDINES, SALTS THEREOF AND THEIR USE AS HERBICIDALLY ACTIVE SUBSTANCES” (BAYER AKTIENGESELLSCHAFT, priority 2021, published 2024)

Experiments:
Assay type in all cases: in vivo
[1] = tested on: Setaria viridis (SETVI); assay: Herbicidal pre-emergence action, section A (Table A8)
From the text: (§1) Seeds of mono- and dicotyledonous weed plants were sown in plastic pots (double sowings with one species of mono- and one species of dicotyledonous weed plants per pot), in sandy loam, and covered with soil. The compounds according to the invention, formulated in the form of wettable powders (WP) or as emulsifiable concentrates (EC), were applied to the surface of the covering soil as aqueous suspension or emulsion, with the addition of 0.5% of an additive, at an application rate of 600 l of water per hectare (converted). Following treatment, the pots were placed in a greenhouse and kept under optimum growth conditions for the test plants. The visual grading of the damage to the test plants was carried out after ca. 3 weeks in comparison to untreated controls (herbicidal effect in percent (%): 100% effect=plants have died off, 0% effect=as control plants).

[2] = tested on: Veronica persica (VERPE); assay: Herbicidal pre-emergence action, section A (Table A10)
From the text: as §1

[3] = tested on: Poa annua (POAAN); assay: Herbicidal pre-emergence action, section A (Table A7); settings: visual grading after ca. 3 weeks vs untreated controls
From the text: as §1

[4] = tested on: Echinochloa crus-galli (ECHCG); assay: Herbicidal post-emergence action, section B (Table B3); settings: rated visually after about 3 weeks
Protocol: (§2) Seeds of mono- and dicotyledonous weed plants were placed in plastic pots in sandy loam soil (doubly sown with in each case one species of mono- or dicotyledonous weed plants per pot), covered with soil and cultivated in a greenhouse under controlled growth conditions. 2 to 3 weeks after sowing, the test plants were treated at the one-leaf stage. The compounds of the invention, formulated in the form of wettable powders (WP) or as emulsion concentrates (EC), were applied onto the green parts of the plants as aqueous suspension or emulsion with addition of 0.5% additive at a water application rate of 600 liters per hectare (converted). After the test plants had been kept in the greenhouse under optimum growth conditions for about 3 weeks, the activity of the preparations was rated visually in comparison to untreated controls. For example, 100% activity=the plants have died, 0% activity=like control plants.

[5] = tested on: Amaranthus retroflexus (AMARE); assay: Herbicidal pre-emergence action, section A (Table A11)
From the text: as §1

[6] = tested on: Stellaria media (STEME); assay: Herbicidal pre-emergence action, section A (Table A9)
From the text: as §1

[7] = tested on: Amaranthus retroflexus (AMARE); assay: Herbicidal post-emergence action, section B (Table B11); settings: application rate 1280 g/ha, visual rating about 3 weeks after treatment vs untreated controls
Protocol: as §2

[8] = tested on: Setaria viridis (SETVI); assay: Herbicidal post-emergence action, section B (Table B8); settings: application rate 1280 g/ha, visual rating about 3 weeks after treatment vs untreated controls
Protocol: as §2

[9] = tested on: Echinochloa crus-galli (ECHCG); assay: Herbicidal pre-emergence action, section A (Table A3); settings: visual grading after ca. 3 weeks vs untreated controls; for pre-emergence activity against ECHCG in %: application rate 1280 g/ha
From the text: as §1

[10] = tested on: Lolium rigidum (LOLRI); assay: Herbicidal pre-emergence action, section A (Table A5); settings: visual grading after ca. 3 weeks vs untreated controls
From the text: as §1

[11] = tested on: Stellaria media (STEME); assay: Herbicidal post-emergence action, section B (Table B9); settings: application rate 1280 g/ha, visual rating about 3 weeks after treatment vs untreated controls
Protocol: as §2

[12] = tested on: Kochia scoparia (KCHSC); assay: Herbicidal pre-emergence action, section A (Table A4); settings: visual grading after ca. 3 weeks vs untreated controls
From the text: as §1

[13] = tested on: Digitaria sanguinalis (DIGSA); assay: Herbicidal pre-emergence action, section A (Table A12)
From the text: as §1

[14] = tested on: Matricaria inodora (MATIN); assay: Herbicidal pre-emergence action, section A (Table A6); settings: visual grading after ca. 3 weeks vs untreated controls
From the text: as §1

[15] = tested on: Alopecurus myosuroides (ALOMY); assay: Herbicidal pre-emergence action, section A (Table A2); settings: application rate 1280 g/ha; visual grading after ca. 3 weeks vs untreated controls
From the text: as §1

[16] = tested on: Kochia scoparia (KCHSC); assay: Herbicidal post-emergence action, section B (Table B4); settings: application rate 1280 g/ha; visual rating about 3 weeks after treatment vs untreated controls
Protocol: as §2

[17] = tested on: Veronica persica (VERPE); assay: Herbicidal post-emergence action, section B (Table B10); settings: application rate 1280 g/ha; visual rating about 3 weeks after treatment vs untreated controls
Protocol: as §2

Structure (SMILES): CCCS(=O)(=O)N1CSc2cc(C)c(-c3cccc(Cl)c3F)nc21 [Example I-112]
- pre-emergence activity against SETVI in % ([1]; application rate 1280 g/ha): 90%
- pre-emergence activity against VERPE in % ([2]; application rate 1280 g/ha): 90%
- pre-emergence activity against POAAN in % ([3]; application rate 1280 g/ha): 100%
- post-emergence activity against ECHCG in % ([4]; application rate 320 g/ha): 100%
- pre-emergence activity against AMARE in % ([5]; application rate 1280 g/ha): 90%
- pre-emergence activity against STEME in % ([6]; application rate 1280 g/ha): 90%

Structure (SMILES): Cc1cc2c(nc1-c1cccc(F)c1F)N(S(C)(=O)=O)CS2 [Example I-147, 5-(2,3-difluorophenyl)-6-methyl-3-(methylsulfonyl)-2,3-dihydro[1,3]thiazolo[4,5-b]pyridine]
- pest or weed control at 1280 g/ha ([7]; Amaranthus retroflexus, post-emergence, 504 h, read-out: post-emergence activity against AMARE in %): 90%
- pest or weed control at 320 g/ha ([1]; Setaria viridis, 504 h, application rate 320 g/ha, read-out: pre-emergence activity against SETVI in %): 100%
- pest or weed control at 320 g/ha ([2]; Veronica persica, 504 h, application rate 320 g/ha, read-out: pre-emergence activity against VERPE in %): 90%
- pest or weed control at 1280 g/ha ([8]; Setaria viridis, post-emergence, 504 h, read-out: post-emergence activity against SETVI in %): 90%
- pest or weed control at 320 g/ha ([9]; Echinochloa crus-galli, pre-emergence, 504 h, application rate 320 g/ha, read-out: pre-emergence activity against ECHCG in %): 100%
- pest or weed control at 1280 g/ha ([10]; Lolium rigidum, pre-emergence, 504 h, application rate 1280 g/ha, read-out: pre-emergence activity against LOLRI in %): 90%
- pest or weed control at 320 g/ha ([3]; Poa annua, pre-emergence, 504 h, application rate 320 g/ha, read-out: pre-emergence activity against POAAN in %): 100%
- pest or weed control at 1280 g/ha ([11]; Stellaria media, post-emergence, 504 h, read-out: post-emergence activity against STEME in %): 90%
- pest or weed control at 320 g/ha ([12]; Bassia scoparia, pre-emergence, 504 h, application rate 320 g/ha, read-out: pre-emergence activity against KCHSC in %): 90%
- pest or weed control at 320 g/ha ([13]; Digitaria sanguinalis, 504 h, application rate 320 g/ha, read-out: pre-emergence activity against DIGSA in %): 90%
- pest or weed control at 320 g/ha ([5]; Amaranthus retroflexus, 504 h, application rate 320 g/ha, read-out: pre-emergence activity against AMARE in %): 90%
- pest or weed control at 1280 g/ha ([6]; Stellaria media, 504 h, application rate 1280 g/ha, read-out: pre-emergence activity against STEME in %): 90%
- pest or weed control at 1280 g/ha ([14]; Tripleurospermum inodorum, pre-emergence, 504 h, application rate 1280 g/ha, read-out: pre-emergence activity against MATIN in %): 90%

Structure (SMILES): CS(=O)(=O)N1CSc2cc(Br)c(-c3cccc(Cl)c3F)nc21 [Example I-116]
- pre-emergence activity against SETVI in % ([1]; application rate 1280 g/ha): 90%
- pre-emergence activity against VERPE in % ([2]; application rate 1280 g/ha): 90%
- pre-emergence activity against ALOMY in % [15]: 90%
- post-emergence activity against KCHSC in % [16]: 90%

Structure (SMILES): CCOC(=O)c1cc2c(nc1-c1ccccc1F)NCS2 [Example I-004]
- post-emergence activity against AMARE in % [7]: 100%
- pre-emergence activity against SETVI in % ([1]; application rate 1280 g/ha): 100%
- pre-emergence activity against ECHCG in % [9]: 100%
- pre-emergence activity against POAAN in % ([3]; application rate 1280 g/ha): 100%
- post-emergence activity against ECHCG in % ([4]; application rate 1280 g/ha): 90%
- pre-emergence activity against KCHSC in % ([12]; application rate 1280 g/ha): 90%
- post-emergence activity against KCHSC in % [16]: 90%
- pre-emergence activity against MATIN in % ([14]; application rate 1280 g/ha): 90%
- post-emergence activity against VERPE in % [17]: 90%

Structure (SMILES): CCCS(=O)(=O)N1CSc2cc(C)c(-c3cccc(F)c3F)nc21 [Example I-145]
- pre-emergence activity against SETVI in % ([1]; application rate 1280 g/ha): 100%
- pre-emergence activity against VERPE in % ([2]; application rate 1280 g/ha): 90%
- pre-emergence activity against ALOMY in % [15]: 90%
- pre-emergence activity against ECHCG in % [9]: 100%
- pre-emergence activity against LOLRI in % ([10]; application rate 1280 g/ha): 100%
- pre-emergence activity against POAAN in % ([3]; application rate 320 g/ha): 100%
- post-emergence activity against STEME in % [11]: 90%
- post-emergence activity against ECHCG in % ([4]; application rate 1280 g/ha): 90%
- pre-emergence activity against KCHSC in % ([12]; application rate 320 g/ha): 90%
- pre-emergence activity against DIGSA in % ([13]; application rate 1280 g/ha): 100%
- pre-emergence activity against AMARE in % ([5]; application rate 1280 g/ha): 90%
- pre-emergence activity against STEME in % ([6]; application rate 320 g/ha): 90%
- pre-emergence activity against MATIN in % ([14]; application rate 1280 g/ha): 90%

Structure (SMILES): CC(=O)N1CSc2cc(C)c(-c3cc(F)ccc3F)nc21 [Example I-168]
- pre-emergence activity against SETVI in % ([1]; application rate 320 g/ha): 100%
- pre-emergence activity against VERPE in % ([2]; application rate 320 g/ha): 90%
- pre-emergence activity against ALOMY in % [15]: 90%
- pre-emergence activity against ECHCG in % [9]: 100%
- pre-emergence activity against LOLRI in % ([10]; application rate 320 g/ha): 90%
- pre-emergence activity against POAAN in % ([3]; application rate 320 g/ha): 100%
- pre-emergence activity against KCHSC in % ([12]; application rate 320 g/ha): 90%
- pre-emergence activity against DIGSA in % ([13]; application rate 320 g/ha): 100%
- post-emergence activity against KCHSC in % [16]: 90%
- pre-emergence activity against AMARE in % ([5]; application rate 320 g/ha): 90%
- pre-emergence activity against STEME in % ([6]; application rate 320 g/ha): 90%
- pre-emergence activity against MATIN in % ([14]; application rate 320 g/ha): 90%
- post-emergence activity against VERPE in % [17]: 90%

Structure (SMILES): COC(=O)CCC(=O)N1CSc2cc(C)c(-c3cccc(F)c3F)nc21 [Example I-153]
- pre-emergence activity against SETVI in % ([1]; application rate 1280 g/ha): 100%
- pre-emergence activity against VERPE in % ([2]; application rate 1280 g/ha): 90%
- post-emergence activity against SETVI in % [8]: 90%
- pre-emergence activity against ECHCG in % [9]: 90%
- pre-emergence activity against LOLRI in % ([10]; application rate 320 g/ha): 90%
- pre-emergence activity against POAAN in % ([3]; application rate 1280 g/ha): 100%
- post-emergence activity against STEME in % [11]: 90%
- pre-emergence activity against KCHSC in % ([12]; application rate 320 g/ha): 90%
- pre-emergence activity against DIGSA in % ([13]; application rate 320 g/ha): 90%
- pre-emergence activity against AMARE in % ([5]; application rate 320 g/ha): 90%
- pre-emergence activity against STEME in % ([6]; application rate 320 g/ha): 90%
- pre-emergence activity against MATIN in % ([14]; application rate 1280 g/ha): 90%
